Assays:
[1] = system: control serum LUMC (pooled serum of ten healthy hospital workers); assay type: binding, human
[2] = system: control serum Blood-bank (commercial negative donor pooled serum); assay type: binding, human
[3] = system: rabbit serum obtained by immunizing with SARS-CoV strain Frankfurt 1; assay type: binding

TLIDFYLCFLAFLLF
Control serum LUMC linear peptides [1]: 0.8
Control serum LUMC looped peptides [1]: 0.8
Control Serum Blood-Bank Looped peptides [2]: 0.4
Control serum Blood-bank linear peptides [2]: 0.7
Rabbit serum linear peptides [3]: 0.4
Rabbit serum looped peptides [3]: 0.4

YLCFLAFLLFLVLIM
Control serum LUMC linear peptides [1]: 0.4
Control serum LUMC looped peptides [1]: 0.8
Control Serum Blood-Bank Looped peptides [2]: 0.6
Control serum Blood-bank linear peptides [2]: 0.8
Rabbit serum linear peptides [3]: 0.3
Rabbit serum looped peptides [3]: 0.3

LFLVLIMLIIFWFSL
Control serum LUMC linear peptides [1]: 0.4
Control serum LUMC looped peptides [1]: 0.4
Control Serum Blood-Bank Looped peptides [2]: 0.8
Control serum Blood-bank linear peptides [2]: 0.8
Rabbit serum linear peptides [3]: 0.4
Rabbit serum looped peptides [3]: 0.5

VLIMLIIFWFSLEIQ
Control serum LUMC linear peptides [1]: 0.7
Control serum LUMC looped peptides [1]: 0.4
Control Serum Blood-Bank Looped peptides [2]: 0.7
Control serum Blood-bank linear peptides [2]: 0.8
Rabbit serum linear peptides [3]: 0.4
Rabbit serum looped peptides [3]: 0.2

FLLFLVLIMLIIFWF
Control serum LUMC linear peptides [1]: 0.3
Control serum LUMC looped peptides [1]: 0.5
Control Serum Blood-Bank Looped peptides [2]: 0.6
Control serum Blood-bank linear peptides [2]: 0.9
Rabbit serum linear peptides [3]: 0.5
Rabbit serum looped peptides [3]: 0.7

NELTLIDFYLCFLAF
Control serum LUMC linear peptides [1]: 0.6
Control serum LUMC looped peptides [1]: 0.9
Control Serum Blood-Bank Looped peptides [2]: 0.5
Control serum Blood-bank linear peptides [2]: 0.6
Rabbit serum linear peptides [3]: 0.4
Rabbit serum looped peptides [3]: 0.8

MNELTLIDFYLCFLA
Control serum LUMC linear peptides [1]: 1.1
Control serum LUMC looped peptides [1]: 0.9
Control Serum Blood-Bank Looped peptides [2]: 0.5
Control serum Blood-bank linear peptides [2]: 0.7
Rabbit serum linear peptides [3]: 0.4
Rabbit serum looped peptides [3]: 0.5

LVLIMLIIFWFSLEI
Control serum LUMC linear peptides [1]: 0.8
Control serum LUMC looped peptides [1]: 0.3
Control Serum Blood-Bank Looped peptides [2]: 0.7
Control serum Blood-bank linear peptides [2]: 0.9
Rabbit serum linear peptides [3]: 0.4
Rabbit serum looped peptides [3]: 0.6

AFLLFLVLIMLIIFW
Control serum LUMC linear peptides [1]: 0.4
Control serum LUMC looped peptides [1]: 0.4
Control Serum Blood-Bank Looped peptides [2]: 0.8
Control serum Blood-bank linear peptides [2]: 0.8
Rabbit serum linear peptides [3]: 0.5
Rabbit serum looped peptides [3]: 1.0

FLAFLLFLVLIMLII
Control serum LUMC linear peptides [1]: 0.5
Control serum LUMC looped peptides [1]: 0.4
Control Serum Blood-Bank Looped peptides [2]: 0.7
Control serum Blood-bank linear peptides [2]: 0.7
Rabbit serum linear peptides [3]: 0.3
Rabbit serum looped peptides [3]: 0.7

IDFYLCFLAFLLFLV
Control serum LUMC linear peptides [1]: 0.5
Control serum LUMC looped peptides [1]: 0.7
Control Serum Blood-Bank Looped peptides [2]: 0.6
Control serum Blood-bank linear peptides [2]: 0.9
Rabbit serum linear peptides [3]: 0.4
Rabbit serum looped peptides [3]: 0.5

FLVLIMLIIFWFSLE
Control serum LUMC linear peptides [1]: 0.7
Control serum LUMC looped peptides [1]: 0.7
Control Serum Blood-Bank Looped peptides [2]: 0.8
Control serum Blood-bank linear peptides [2]: 0.9
Rabbit serum linear peptides [3]: 0.4
Rabbit serum looped peptides [3]: 0.6

NLDSLEARAFQSTPI
Rabbit serum linear peptides [3]: 0.2
Rabbit serum looped peptides [3]: 0.4

RNLDSLEARAFQSTP
Rabbit serum linear peptides [3]: 0.3
Rabbit serum looped peptides [3]: 0.5

IQLTITRMEDAMGQG
Rabbit serum linear peptides [3]: 0.0
Rabbit serum looped peptides [3]: 0.2

TTEELPDEFVVVTAK
Rabbit serum linear peptides [3]: 0.0
Rabbit serum looped peptides [3]: 0.5

DPQIQLTITRMEDAM
Rabbit serum linear peptides [3]: 0.1
Rabbit serum looped peptides [3]: 0.3

RLGSQLSLSMARRNL
Rabbit serum linear peptides [3]: 0.1
Rabbit serum looped peptides [3]: 2.5

PQIQLTITRMEDAMG
Rabbit serum linear peptides [3]: 0.0
Rabbit serum looped peptides [3]: 0.2

ISLCSCICTVVQRCA
Rabbit serum linear peptides [3]: 0.1
Rabbit serum looped peptides [3]: 0.5

LSLSMARRNLDSLEA
Rabbit serum linear peptides [3]: 0.1
Rabbit serum looped peptides [3]: 0.3

SMARRNLDSLEARAF
Rabbit serum linear peptides [3]: 0.1
Rabbit serum looped peptides [3]: 0.4

ARRNLDSLEARAFQS
Rabbit serum linear peptides [3]: 0.1
Rabbit serum looped peptides [3]: 0.5

KVYPIILRLGSQLSL
Rabbit serum linear peptides [3]: 1.8
Rabbit serum looped peptides [3]: 0.5

LTCISLCSCICTVVQ
Rabbit serum linear peptides [3]: 0.1
Rabbit serum looped peptides [3]: 0.2

MDPNQTNVVPPALHL
Rabbit serum linear peptides [3]: 1.1
Rabbit serum looped peptides [3]: 0.1

LCSCICTVVQRCASN
Rabbit serum linear peptides [3]: 0.1
Rabbit serum looped peptides [3]: 1.1

LIVLTCISLCSCICT
Rabbit serum linear peptides [3]: 0.1
Rabbit serum looped peptides [3]: 0.5

SNKPHVLEDPCKVQH
Rabbit serum linear peptides [3]: 0.8
Rabbit serum looped peptides [3]: 0.4

ALHLVDPQIQLTITR
Rabbit serum linear peptides [3]: 0.5
Rabbit serum looped peptides [3]: 0.5

VYPIILRLGSQLSLS
Rabbit serum linear peptides [3]: 0.6
Rabbit serum looped peptides [3]: 1.0

LGSQLSLSMARRNLD
Rabbit serum linear peptides [3]: 0.1
Rabbit serum looped peptides [3]: 0.3

ARAFQSTPIVVQMTK
Rabbit serum linear peptides [3]: 0.2
Rabbit serum looped peptides [3]: 0.7

RAFQSTPIVVQMTKL
Rabbit serum linear peptides [3]: 0.1
Rabbit serum looped peptides [3]: 0.7

DAMGQGQNSADPKVY
Rabbit serum linear peptides [3]: 0.3
Rabbit serum looped peptides [3]: 0.4

DSLEARAFQSTPIVV
Rabbit serum linear peptides [3]: 0.1
Rabbit serum looped peptides [3]: 0.5

LLFLVLIMLIIFWFS
Control serum LUMC linear peptides [1]: 0.4
Control serum LUMC looped peptides [1]: 0.4
Control Serum Blood-Bank Looped peptides [2]: 0.9
Control serum Blood-bank linear peptides [2]: 0.9
Rabbit serum linear peptides [3]: 0.5
Rabbit serum looped peptides [3]: 0.6

GQNSADPKVYPIILR
Rabbit serum linear peptides [3]: 0.1
Rabbit serum looped peptides [3]: 0.6

LEARAFQSTPIVVQM
Rabbit serum linear peptides [3]: 0.1
Rabbit serum looped peptides [3]: 0.5

LAFLLFLVLIMLIIF
Control serum LUMC linear peptides [1]: 0.3
Control serum LUMC looped peptides [1]: 0.4
Control Serum Blood-Bank Looped peptides [2]: 0.8
Control serum Blood-bank linear peptides [2]: 0.6
Rabbit serum linear peptides [3]: 0.4
Rabbit serum looped peptides [3]: 1.1

QSTPIVVQMTKLATT
Rabbit serum linear peptides [3]: 0.0
Rabbit serum looped peptides [3]: 0.6

TPIVVQMTKLATTEE
Rabbit serum linear peptides [3]: 0.1
Rabbit serum looped peptides [3]: 0.4

RRNLDSLEARAFQST
Rabbit serum linear peptides [3]: 0.3
Rabbit serum looped peptides [3]: 0.5

CASNKPHVLEDPCKV
Rabbit serum linear peptides [3]: 0.5
Rabbit serum looped peptides [3]: 0.8

DPKVYPIILRLGSQL
Rabbit serum linear peptides [3]: 0.1
Rabbit serum looped peptides [3]: 0.4

ADPKVYPIILRLGSQ
Rabbit serum linear peptides [3]: 0.4
Rabbit serum looped peptides [3]: 0.3

FQSTPIVVQMTKLAT
Rabbit serum linear peptides [3]: 0.1
Rabbit serum looped peptides [3]: 0.6

QGQNSADPKVYPIIL
Rabbit serum linear peptides [3]: 0.1
Rabbit serum looped peptides [3]: 0.5

QLTITRMEDAMGQGQ
Rabbit serum linear peptides [3]: 0.1
Rabbit serum looped peptides [3]: 0.4

TCISLCSCICTVVQR
Rabbit serum linear peptides [3]: 0.0
Rabbit serum looped peptides [3]: 0.5

LRLGSQLSLSMARRN
Rabbit serum linear peptides [3]: 0.1
Rabbit serum looped peptides [3]: 0.5

SADPKVYPIILRLGS
Rabbit serum linear peptides [3]: 0.1
Rabbit serum looped peptides [3]: 0.4

LSMARRNLDSLEARA
Rabbit serum linear peptides [3]: 0.0
Rabbit serum looped peptides [3]: 0.4

QNSADPKVYPIILRL
Rabbit serum linear peptides [3]: 0.1
Rabbit serum looped peptides [3]: 0.1

AMGQGQNSADPKVYP
Rabbit serum linear peptides [3]: 0.1
Rabbit serum looped peptides [3]: 0.6

MGQGQNSADPKVYPI
Rabbit serum linear peptides [3]: 0.1
Rabbit serum looped peptides [3]: 0.6

From patent US20060154243A1 (priority 2003, published 2006)
